Legend:
[1] = LD50 / acute toxicity, intraperitoneal route; assay type: in vivo; conditions: i.p.; for Toxicity (Gleason): Gleason class in words, classes not defined
[2] = Hematic levels at different times after oral administration (absorption); assay type: in vivo, Wistar rat; conditions: 100 mg/kg expressed as vincamine/apovincamine, 5% carboxymethyl cellulose suspension
Procedure: (§1) For the compounds of the present invention a number of pharmacological and pharmacokinetic tests have been carried out. […] As regards the pharmacological and pharmacodynamic activity, it has been studied on the percent variations of the hematic flow, as recorded at the vertebral arteria in the dog after administration of the tested compounds. As regards the pharmacokinetic tests, the compounds were administered per oral route to the Wistar rat, and the hematic levels at different times from the administration were measured.
For the evaluation of the absorption, all the compounds have been orally administered at the dosage of 100 mg/kg, expressed as vincamine and apovincamine, in form of a suspension in a 5% carboxymethyl cellulose solution.
The absorption was determined by evaulating the hematic levels at the following times (minutes) : 0, 30, 120, 240, 480, 10 hours and 12 hours, in order also to assess the time from the administration (max conc.time) the maximum absorption occurred.
The vincamine and apovincamine concentrations were assessed by chromatographic method.
For the evaluation of the prolonged action of the salts and of the adducts of vincamine and apovincamine the following criterium was adopted; as derivatives having a long-acting effect, there are considered those which, 120 minutes after the administration, show hematic levels higher than those obtained with vincamine and apovincamine.

vertebral arteria = assay: Cerebral vasodilating activity: hematic flow at the vertebral arteria after i.v. administration; assay type: in vivo; conditions: i.v. (femoral vein), 5 mg/kg of vincamine/apovincamine, anesthetized dog, 4 animals per compound
Procedure: as §1
The cerebral vasodilating activity was studied in the anestetized dog, by measuring, by means of Statham periarterial electromagnetic flowmeters, the hematic flow at the level of the […] which, in such animal species, constitutes the greatest blood supply to the brain.
The resuls are reported in the TABLE 2 (last column) as the percent variations of the flow measured at the level of the ledt vertebral arteria after the i.v. administration of the several compounds to be tested to groups of 4 animals for each compound. The results also confirm that the compounds of the invention are all endowed with a vasodilating activity at the level of the cerebral circulus, such an action being, for some compounds, much more remarkable than that of vincamine and apovincamine.

Solubility = assay type: physicochemical; conditions: qualitative; for solubility in alcohol: alcohol (ethyl alcohol)

CC[C@@]12C=C(C(=O)OC)n3c4c(c5ccccc53)CCN(CCC1)[C@H]42 [Example 14.b, Apovincamine L(+)-O,O-dibenzoyltartrate]
LD50 [1]: 1500 mg/kg | Toxicity (Gleason) [1]: light | Max. conc. time ([2]; 100 mg/kg): 120 min | % increase (percent variation of hematic flow, left vertebral arteria) (vertebral arteria; 5 mg/kg): 31.0% | solubility in alcohol (Solubility): soluble

CC[C@@]12C=C(C(=O)OC)n3c4c(c5ccccc53)CCN(CCC1)[C@H]42 [Example 8.b, Apovincamine p-toluensulfonate]
LD50 [1]: 900 mg/kg | Toxicity (Gleason) [1]: modest | Max. conc. time ([2]; 100 mg/kg): 480 min | % increase (percent variation of hematic flow, left vertebral arteria) (vertebral arteria; 5 mg/kg): 29.0% | solubility in alcohol (Solubility): soluble | solubility in water (Solubility): insoluble

CC[C@]12CCCN3CCc4c(n(c5ccccc45)[C@@](O)(C(=O)OC)C1)[C@@H]32 [Example 29.a, Vincamine dihydroxyphenylalanine (DOPA)]
LD50 [1]: 1500 mg/kg | Toxicity (Gleason) [1]: light | Max. conc. time ([2]; 100 mg/kg): 20 min | % increase (percent variation of hematic flow, left vertebral arteria) (vertebral arteria; 5 mg/kg): 38.2% | solubility in the common (organic) solvents (Solubility): practically insoluble | solubility in water (Solubility): practically insoluble

CC[C@]12CCCN3CCc4c(n(c5ccccc45)[C@@](O)(C(=O)OC)C1)[C@@H]32 [Example 28.a, Vincamine salicylate]
LD50 [1]: 700 mg/kg | Toxicity (Gleason) [1]: modest | Max. conc. time ([2]; 100 mg/kg): 240 min | % increase (percent variation of hematic flow, left vertebral arteria) (vertebral arteria; 5 mg/kg): 25.7% | solubility in alcohol (Solubility): soluble | solubility in the common (organic) solvents (Solubility): insoluble | solubility in water (Solubility): insoluble

CC[C@@]12C=C(C(=O)OC)n3c4c(c5ccccc53)CCN(CCC1)[C@H]42 [Example 19.b, Apovincamine p-chlorophenoxyacetate]
LD50 [1]: 750 mg/kg | Toxicity (Gleason) [1]: modest | Max. conc. time ([2]; 100 mg/kg): 480 min | % increase (percent variation of hematic flow, left vertebral arteria) (vertebral arteria; 5 mg/kg): 28.4% | solubility in water (Solubility): insoluble

CC[C@]12CCCN3CCc4c(n(c5ccccc45)[C@@](O)(C(=O)OC)C1)[C@@H]32 [Example 10.a]
LD50 [1]: 1300 mg/kg | Toxicity (Gleason) [1]: light | Max. conc. time ([2]; 100 mg/kg): 240 min | % increase (percent variation of hematic flow, left vertebral arteria) (vertebral arteria; 5 mg/kg): 27.9% | solubility in alcohol (Solubility): insoluble | solubility in water (Solubility): insoluble

CC[C@]12CCCN3CCc4c(n(c5ccccc45)[C@@](O)(C(=O)OC)C1)[C@@H]32 [Example 26.a]
LD50 [1]: 1000 mg/kg | Toxicity (Gleason) [1]: modest | Max. conc. time ([2]; 100 mg/kg): 120 min | % increase (percent variation of hematic flow, left vertebral arteria) (vertebral arteria; 5 mg/kg): 23.8% | solubility in the common (organic) solvents (Solubility): insoluble | solubility in water (Solubility): insoluble

CC[C@]12CCCN3CCc4c(n(c5ccccc45)[C@@](O)(C(=O)OC)C1)[C@@H]32 [Example 5.a, Vincamine 2,6-dihydroxybenzoate]
LD50 [1]: 550 mg/kg | Toxicity (Gleason) [1]: modest | Max. conc. time ([2]; 100 mg/kg): 120 min | % increase (percent variation of hematic flow, left vertebral arteria) (vertebral arteria; 5 mg/kg): 23.6% | solubility in alcohol (Solubility): insoluble | solubility in water (Solubility): insoluble

Vincamine pectin (1:1 adduct) [Example 30.a]
LD50 [1]: 2000 mg/kg | Toxicity (Gleason) [1]: negligible | Max. conc. time [2]: 20 min | % increase (percent variation of hematic flow, left vertebral arteria) (vertebral arteria): 40.0% | solubility in the common (organic) solvents (Solubility): insoluble | solubility in water (Solubility): insoluble

CC[C@]12CCCN3CCc4c(n(c5ccccc45)[C@@](O)(C(=O)OC)C1)[C@@H]32 [Example 22.a, Vincamine caprate]
LD50 [1]: 2000 mg/kg | Toxicity (Gleason) [1]: negligible | Max. conc. time ([2]; 100 mg/kg): 120 min | % increase (percent variation of hematic flow, left vertebral arteria) (vertebral arteria; 5 mg/kg): 23.9% | solubility in the common (organic) solvents (Solubility): insoluble | solubility in water (Solubility): insoluble

CC[C@]12CCCN3CCc4c(n(c5ccccc45)[C@@](O)(C(=O)OC)C1)[C@@H]32 [Example 25.a, Vincamine (D,L)-mandelate]
LD50 [1]: 900 mg/kg | Toxicity (Gleason) [1]: modest | Max. conc. time ([2]; 100 mg/kg): 20 min | % increase (percent variation of hematic flow, left vertebral arteria) (vertebral arteria; 5 mg/kg): 39.4% | solubility in alcohol (Solubility): soluble | solubility in the common (organic) solvents (Solubility): insoluble | solubility in water (Solubility): insoluble

CC[C@]12CCCN3CCc4c(n(c5ccccc45)[C@@](O)(C(=O)OC)C1)[C@@H]32 [Example 12.a, Vincamine furoate (furan-2-carboxylate)]
LD50 [1]: 800 mg/kg | Toxicity (Gleason) [1]: modest | Max. conc. time ([2]; 100 mg/kg): 120 min | % increase (percent variation of hematic flow, left vertebral arteria) (vertebral arteria; 5 mg/kg): 24.8% | solubility in alcohol (Solubility): insoluble | solubility in water (Solubility): insoluble

CC[C@@]12C=C(C(=O)OC)n3c4c(c5ccccc53)CCN(CCC1)[C@H]42 [Example 10.b, Apovincamine pivalate]
LD50 [1]: 750 mg/kg | Toxicity (Gleason) [1]: modest | Max. conc. time ([2]; 100 mg/kg): 480 min | % increase (percent variation of hematic flow, left vertebral arteria) (vertebral arteria; 5 mg/kg): 31.4% | solubility in alcohol (Solubility): soluble | solubility in water (Solubility): insoluble

CC[C@@]12C=C(C(=O)OC)n3c4c(c5ccccc53)CCN(CCC1)[C@H]42 [Example 16.b, Apovincamine acetylsalicylate]
LD50 [1]: 750 mg/kg | Toxicity (Gleason) [1]: modest | Max. conc. time ([2]; 100 mg/kg): 60 min | % increase (percent variation of hematic flow, left vertebral arteria) (vertebral arteria; 5 mg/kg): 40.1% | solubility in alcohol (Solubility): soluble | solubility in water (Solubility): very little soluble

CC[C@]12CCCN3CCc4c(n(c5ccccc45)[C@@](O)(C(=O)OC)C1)[C@@H]32 [Example 21.a]
LD50 [1]: 900 mg/kg | Toxicity (Gleason) [1]: modest | Max. conc. time ([2]; 100 mg/kg): 20 min | % increase (percent variation of hematic flow, left vertebral arteria) (vertebral arteria; 5 mg/kg): 30.0% | solubility in the common (organic) solvents (Solubility): insoluble | solubility in water (Solubility): insoluble

CC[C@@]12C=C(C(=O)OC)n3c4c(c5ccccc53)CCN(CCC1)[C@H]42 [Example 3.b, Apovincamine glucose-1-phosphate]
LD50 [1]: 850 mg/kg | Toxicity (Gleason) [1]: modest | Max. conc. time ([2]; 100 mg/kg): 120 min | % increase (percent variation of hematic flow, left vertebral arteria) (vertebral arteria; 5 mg/kg): 26.4% | solubility in water (Solubility): soluble

CC[C@@]12C=C(C(=O)OC)n3c4c(c5ccccc53)CCN(CCC1)[C@H]42 [Example 18.b]
LD50 [1]: 1500 mg/kg | Toxicity (Gleason) [1]: light | Max. conc. time ([2]; 100 mg/kg): 120 min | % increase (percent variation of hematic flow, left vertebral arteria) (vertebral arteria; 5 mg/kg): 33.1% | solubility in alcohol (Solubility): insoluble | solubility in water (Solubility): insoluble

CC[C@]12CCCN3CCc4c(n(c5ccccc45)[C@@](O)(C(=O)OC)C1)[C@@H]32 [Example 3.a, Vincamine glucose-1-phosphate]
LD50 [1]: 1150 mg/kg | Toxicity (Gleason) [1]: light | Max. conc. time ([2]; 100 mg/kg): 240 min | % increase (percent variation of hematic flow, left vertebral arteria) (vertebral arteria; 5 mg/kg): 29.0% | solubility in water (Solubility): partially soluble

Source: patent publication US4122179A, “Acid addition salts of vincamine and apovincamine” (priority 1976, dated 1978)
